From US20230295182A1, “SPIRO DERIVATIVES OF ALPHA-D-GALACTOPYRANOSIDES” (Idorsia Pharmaceuticals Ltd, priority 2020, published 2023)
pIC50: −log10 of the molar value.

Key:
human Gal-3 (hGal-3) = human Gal-3 (hGal-3) (Homo sapiens (Human), UniProt P17931); experiment: Competitive binding assay: biotinylated hGal-3 to microplate-adsorbed asialofetuin (ASF); details: Activity on hGal-3; binding to ASF-coated plates, 3 hours at 4° C.; mean values
In short: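 Biotinylated hGal-3 (300-1000 ng/mL) binding to plate-adsorbed asialofetuin, with DMSO-diluted compound added, incubated 3 h at 4 °C. After washing, bound protein detected with streptavidin-peroxidase (80 ng/mL, 1 h, 4 °C) and ABTS substrate, read spectrophotometrically. IC50 given as mean of several measurements.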

human Gal-1 (hGal-1) = human Gal-1 (hGal-1) (Homo sapiens, UniProt P09382); experiment: Competitive binding assay: biotinylated hGal-1 to microplate-adsorbed asialofetuin (ASF); details: Activities on hGal-1; binding to ASF-coated plates, 3 hours at 4° C.; mean values; read-out: Gal-1 IC50
In short: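 Plate-adsorbed asialofetuin is incubated 3 h at 4 °C with biotinylated hGal-1, optionally its all-serine-substituted cysteine variant, plus compound dilutions. ABTS color after 1 h streptavidin-peroxidase (80 ng/mL) at 4 °C reports binding. Reported IC50 is a mean across repeat runs.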

human Gal-3 (hGal-3), sequence (P17931 whole entry): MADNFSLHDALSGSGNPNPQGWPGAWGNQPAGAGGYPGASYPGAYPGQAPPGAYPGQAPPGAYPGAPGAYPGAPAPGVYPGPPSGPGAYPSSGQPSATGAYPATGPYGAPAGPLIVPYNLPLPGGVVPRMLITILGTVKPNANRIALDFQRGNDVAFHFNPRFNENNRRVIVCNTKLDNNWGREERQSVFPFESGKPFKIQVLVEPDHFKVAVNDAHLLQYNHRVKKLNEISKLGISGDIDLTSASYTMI
human Gal-1 (hGal-1), sequence (P09382 2-135 limits assumed): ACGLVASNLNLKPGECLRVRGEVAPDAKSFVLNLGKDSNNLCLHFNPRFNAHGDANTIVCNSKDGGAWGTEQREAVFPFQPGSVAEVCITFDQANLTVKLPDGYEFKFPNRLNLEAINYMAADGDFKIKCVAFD

Structure (SMILES)	pIC50 (human Gal-3 (hGal-3))	pIC50 (human Gal-1 (hGal-1))
CO[C@@H]1[C@@H](n2cc(-c3ccc(F)c(F)c3F)nn2)[C@@H](O)[C@@H](CO)O[C@@H]1CC1=NOC2(CCC(C(C)(C)O)CC2)C1 (stereo partly drawn) [Example 1.48, (2R,3R,4S,5R,6R)-2-(hydroxymethyl)-6-((8-(2-hydroxypropan-2-yl)-1-oxa-2-azaspiro[4.5]dec-2-en-3-yl)methyl)-5-methoxy-4-(4-(2,3,4-trifluorophenyl)-1H-1,2,3-triazol-1-yl)tetrahydro-2H-pyran-3-ol]	6.31	5.59
CO[C@@H]1[C@@H](n2cc(-c3ccc(Cl)c(F)c3F)nn2)[C@@H](O)[C@@H](CO)O[C@@H]1CC1=NOC2(CCC(C#N)CC2)C1 (stereo partly drawn) [Example 1.49, 3-(((2R,3R,4S,5R,6R)-4-(4-(4-chloro-2,3-difluorophenyl)-1H-1,2,3-triazol-1-yl)-5-hydroxy-6-(hydroxymethyl)-3-methoxytetrahydro-2H-pyran-2-yl)methyl)-1-oxa-2-azaspiro[4.5]dec-2-ene-8-carbonitrile]	6.96	5.92
CO[C@@H]1[C@@H](n2cc(-c3ccc(F)c(F)c3F)nn2)[C@@H](O)[C@@H](CO)O[C@@H]1CC1=NOC2(CCC(C#N)CC2)C1 (stereo partly drawn) [Example 1.50, 3-(((2R,3R,4S,5R,6R)-5-hydroxy-6-(hydroxymethyl)-3-methoxy-4-(4-(2,3,4-trifluorophenyl)-1H-1,2,3-triazol-1-yl)tetrahydro-2H-pyran-2-yl)methyl)-1-oxa-2-azaspiro[4.5]dec-2-ene-8-carbonitrile]	6.80	6.24
CO[C@@H]1[C@@H](n2cc(-c3ccc(C)c(F)c3F)nn2)[C@@H](O)[C@@H](CO)O[C@@H]1CC1=NOC2(CCC(C#N)CC2)C1 (stereo partly drawn) [Example 1.51, 3-(((2R,3R,4S,5R,6R)-4-(4-(2,3-difluoro-4-methylphenyl)-1H-1,2,3-triazol-1-yl)-5-hydroxy-6-(hydroxymethyl)-3-methoxytetrahydro-2H-pyran-2-yl)methyl)-1-oxa-2-azaspiro[4.5]dec-2-ene-8-carbonitrile]	7.00	5.72
CO[C@@H]1[C@@H](n2cc(-c3ccc(F)c(F)c3F)nn2)[C@@H](O)[C@@H](CO)O[C@@H]1CC1=NO[C@]2(CC[C@H](C(C)(C)O)CC2)C1 [Example 1.52, (2R,3R,4S,5R,6R)-2-(hydroxymethyl)-6-(((5r,8R)-8-(2-hydroxypropan-2-yl)-1-oxa-2-azaspiro[4.5]dec-2-en-3-yl)methyl)-5-methoxy-4-(4-(2,3,4-trifluorophenyl)-1H-1,2,3-triazol-1-yl)tetrahydro-2H-pyran-3-ol]	6.59	5.55
CO[C@@H]1[C@@H](n2cc(-c3ccc(F)c(F)c3F)nn2)[C@@H](O)[C@@H](CO)O[C@@H]1CC1=NO[C@]2(CC[C@@H](C(C)(C)O)CC2)C1 [Example 1.53, (2R,3R,4S,5R,6R)-2-(hydroxymethyl)-6-(((5s,8S)-8-(2-hydroxypropan-2-yl)-1-oxa-2-azaspiro[4.5]dec-2-en-3-yl)methyl)-5-methoxy-4-(4-(2,3,4-trifluorophenyl)-1H-1,2,3-triazol-1-yl)tetrahydro-2H-pyran-3-ol]	6.57	5.92
CO[C@@H]1[C@@H](n2cc(-c3ccc(C)c(F)c3F)nn2)[C@@H](O)[C@@H](CO)O[C@@H]1CC1=NOC2(CCC(C(C)(C)O)CC2)C1 (stereo partly drawn) [Example 1.54, (2R,3R,4S,5R,6R)-4-(4-(2,3-difluoro-4-methylphenyl)-1H-1,2,3-triazol-1-yl)-2-(hydroxymethyl)-6-((8-(2-hydroxypropan-2-yl)-1-oxa-2-azaspiro[4.5]dec-2-en-3-yl)methyl)-5-methoxytetrahydro-2H-pyran-3-ol]	6.70	5.27
CO[C@@H]1[C@@H](n2cc(-c3ccc(Cl)c(F)c3F)nn2)[C@@H](O)[C@@H](CO)O[C@@H]1CC1=NOC2(CCC(C(C)(C)O)CC2)C1 (stereo partly drawn) [Example 1.55, (2R,3R,4S,5R,6R)-4-(4-(4-chloro-2,3-difluorophenyl)-1H-1,2,3-triazol-1-yl)-2-(hydroxymethyl)-6-((8-(2-hydroxypropan-2-yl)-1-oxa-2-azaspiro[4.5]dec-2-en-3-yl)methyl)-5-methoxytetrahydro-2H-pyran-3-ol]	6.40	5.36
CO[C@@H]1[C@@H](n2cc(-c3ccc(C)c(F)c3F)nn2)[C@@H](O)[C@@H](CO)O[C@@H]1CC1=NO[C@]2(CC[C@@H](C#N)CC2)C1 [Example 1.56, (5s,8S)-3-(((2R,3R,4S,5R,6R)-4-(4-(2,3-difluoro-4-methylphenyl)-1H-1,2,3-triazol-1-yl)-5-hydroxy-6-(hydroxymethyl)-3-methoxytetrahydro-2H-pyran-2-yl)methyl)-1-oxa-2-azaspiro[4.5]dec-2-ene-8-carbonitrile]	6.92	5.44
CO[C@@H]1[C@@H](n2cc(-c3ccc(C)c(F)c3F)nn2)[C@@H](O)[C@@H](CO)O[C@@H]1CC1=NO[C@]2(CC[C@H](C#N)CC2)C1 [Example 1.57, (5r,8R)-3-(((2R,3R,4S,5R,6R)-4-(4-(2,3-difluoro-4-methylphenyl)-1H-1,2,3-triazol-1-yl)-5-hydroxy-6-(hydroxymethyl)-3-methoxytetrahydro-2H-pyran-2-yl)methyl)-1-oxa-2-azaspiro[4.5]dec-2-ene-8-carbonitrile]	7.39	6.28
CO[C@@H]1[C@@H](n2cc(-c3ccc(F)c(F)c3F)nn2)[C@@H](O)[C@@H](CO)O[C@@H]1CC1=NO[C@]2(CC[C@@H](C#N)CC2)C1 [Example 1.58, (5s,8S)-3-(((2R,3R,4S,5R,6R)-5-hydroxy-6-(hydroxymethyl)-3-methoxy-4-(4-(2,3,4-trifluorophenyl)-1H-1,2,3-triazol-1-yl)tetrahydro-2H-pyran-2-yl)methyl)-1-oxa-2-azaspiro[4.5]dec-2-ene-8-carbonitrile]	6.96	6.19
CO[C@@H]1[C@@H](n2cc(-c3ccc(F)c(F)c3F)nn2)[C@@H](O)[C@@H](CO)O[C@@H]1CC1=NO[C@]2(CC[C@H](C#N)CC2)C1 [Example 1.59, (5r,8R)-3-(((2R,3R,4S,5R,6R)-5-hydroxy-6-(hydroxymethyl)-3-methoxy-4-(4-(2,3,4-trifluorophenyl)-1H-1,2,3-triazol-1-yl)tetrahydro-2H-pyran-2-yl)methyl)-1-oxa-2-azaspiro[4.5]dec-2-ene-8-carbonitrile]	6.89	6.66
CO[C@@H]1[C@@H](n2cc(-c3ccc(Cl)c(F)c3F)nn2)[C@@H](O)[C@@H](CO)O[C@@H]1CC1=NO[C@]2(CC[C@@H](C#N)CC2)C1 [Example 1.60, (5s,8S)-3-(((2R,3R,4S,5R,6R)-4-(4-(4-chloro-2,3-difluorophenyl)-1H-1,2,3-triazol-1-yl)-5-hydroxy-6-(hydroxymethyl)-3-methoxytetrahydro-2H-pyran-2-yl)methyl)-1-oxa-2-azaspiro[4.5]dec-2-ene-8-carbonitrile]	7.05	5.80
CO[C@@H]1[C@@H](n2cc(-c3ccc(Cl)c(F)c3F)nn2)[C@@H](O)[C@@H](CO)O[C@@H]1CC1=NO[C@]2(CC[C@H](C#N)CC2)C1 [Example 1.61, (5r,8R)-3-(((2R,3R,4S,5R,6R)-4-(4-(4-chloro-2,3-difluorophenyl)-1H-1,2,3-triazol-1-yl)-5-hydroxy-6-(hydroxymethyl)-3-methoxytetrahydro-2H-pyran-2-yl)methyl)-1-oxa-2-azaspiro[4.5]dec-2-ene-8-carbonitrile]	7.31	6.34
CO[C@@H]1[C@@H](n2cc(-c3ccc(C)c(F)c3F)nn2)[C@@H](O)[C@@H](CO)O[C@@H]1CC1=NO[C@]2(CC[C@H](C(C)(C)O)CC2)C1 [Example 1.62, (2R,3R,4S,5R,6R)-4-(4-(2,3-difluoro-4-methylphenyl)-1H-1,2,3-triazol-1-yl)-2-(hydroxymethyl)-6-(((5r,8R)-8-(2-hydroxypropan-2-yl)-1-oxa-2-azaspiro[4.5]dec-2-en-3-yl)methyl)-5-methoxytetrahydro-2H-pyran-3-ol]	6.72	5.34
CO[C@@H]1[C@@H](n2cc(-c3ccc(C)c(F)c3F)nn2)[C@@H](O)[C@@H](CO)O[C@@H]1CC1=NO[C@]2(CC[C@@H](C(C)(C)O)CC2)C1 [Example 1.63, (2R,3R,4S,5R,6R)-4-(4-(2,3-difluoro-4-methylphenyl)-1H-1,2,3-triazol-1-yl)-2-(hydroxymethyl)-6-(((5s,8S)-8-(2-hydroxypropan-2-yl)-1-oxa-2-azaspiro[4.5]dec-2-en-3-yl)methyl)-5-methoxytetrahydro-2H-pyran-3-ol]	6.74	5.47
CO[C@@H]1[C@@H](n2cc(-c3ccc(Cl)c(F)c3F)nn2)[C@@H](O)[C@@H](CO)O[C@@H]1CC1=NO[C@]2(CC[C@H](C(C)(C)O)CC2)C1 [Example 1.64, (2R,3R,4S,5R,6R)-4-(4-(4-chloro-2,3-difluorophenyl)-1H-1,2,3-triazol-1-yl)-2-(hydroxymethyl)-6-(((5r,8R)-8-(2-hydroxypropan-2-yl)-1-oxa-2-azaspiro[4.5]dec-2-en-3-yl)methyl)-5-methoxytetrahydro-2H-pyran-3-ol]	6.31	5.62
CO[C@@H]1[C@@H](n2cc(-c3ccc(Cl)c(F)c3F)nn2)[C@@H](O)[C@@H](CO)O[C@@H]1CC1=NO[C@]2(CC[C@@H](C(C)(C)O)CC2)C1 [Example 1.65, (2R,3R,4S,5R,6R)-4-(4-(4-chloro-2,3-difluorophenyl)-1H-1,2,3-triazol-1-yl)-2-(hydroxymethyl)-6-(((5s,8S)-8-(2-hydroxypropan-2-yl)-1-oxa-2-azaspiro[4.5]dec-2-en-3-yl)methyl)-5-methoxytetrahydro-2H-pyran-3-ol]	6.92	5.57
